# Experimental data from US10251845B2, “Fatty acid cysteamine conjugates and their use as activators of autophagy” (Catabasis Pharmaceuticals, Inc., priority 2014, dated 2019).
# Like-named read-outs stand apart in the source and are kept apart here.
# What was measured:
# [1] = Plasma stability, mouse plasma; format: in vitro ADME; conditions: 5 μM, 0.5, 1 and 2 hour time points
# Procedure: (§1) The in vitro stability of the test compounds was studied in human, mouse, beagle and rat plasma (plasma was purchased from Bioreclamation). Plasma was diluted to 50% with PBS (pH 7.4). Test compounds were dissolved in DMSO to a final concentration of 10 mM and then diluted to 1 mM in MeOH. Incubations were carried at a test compound concentration of 5 μM with a final DMSO concentration of 2.5%. Plasma (198 μL) was added to 96-well plate and incubated at 37° C. for 30 minutes before the addition of […] of the test compound. The resulting mixture was then incubated at 37° C. for 2 hours. At appropriate time intervals (0, 30, 60 and 120 minutes), aliquots (50 μL) were removed and reactions were terminated by adding 200 μL of acetonitrile with an internal standard. Simultaneously, plasma samples containing Benflourex or Procaine (control compound) were terminated by adding 200 μL of acetonitrile internal standard. The sample plate was centrifuged at 3500 rpm for 45 minutes at 4° C. and the supernatant was transferred to a new plate for analysis by LC/MS-MS (Agilent Model No: HPLC: 1200, MS: 6410). […] A binary gradient consisting of 0.1% formic acid in water and 0.1% formic acid in methanol was used for analyte elution.
# [2] = Oral cannulated rat PK study (portal and jugular vein); format: in vivo, Sprague Dawley rats; conditions: for AUC(0-t) / Cmax: Sprague Dawley
# Source text: The compounds of the invention were solubilized in a mixture of excipients consisting 40% Tween, 50% Peceol, 10% PEG400 and diluted with water to form a self-emulsifying aqueous mixture for oral administration to animals. For this study, Sprague Dawley rats that have been surgically implanted with indwelling jugular vein cannula (JVC) and portal vein cannula (PVC) were used (Agilux, Worcester, Mass.). This approach using double-cannulated rats allowed the measurement of the drug concentration that was delivered in the portal vein as well as the drug concentration that was present in the peripheral. For the PK study, serial blood collection was carried out at both the portal and jugular vein at the following time points: 10, 20, 40 min and 1, 2, 4 and 6 hours post dose. The bioanalytical portion of the PK study was carried out using an LC/MS/MS system (Agilent Model No: HPLC: 1200, MS: 6410) and analyzed with the appropriate software (WinNonlin Phoenix 64 6.3.0 395).
# [3] = Plasma stability, rat plasma; format: in vitro ADME
# Procedure: as §1
smiles,measurement,setting,value
"CC/C=C\C/C=C\C/C=C\C/C=C\C/C=C\C/C=C\CCC(=O)NCCSSC(C)(C)CNC(=O)c1cccnc1 [II-3, N-(2-((2-((4Z,7Z,10Z,13Z,16Z,19Z)-docosa-4,7,10,13,16,19-hexaenamido)ethyl)disulfanyl)-2-methylpropyl)nicotinamide]",plasma stability (parent compound remaining),[1],complete plasma stability
same,AUC(0-t),"[2]; jugular vein blood (peripheral), rat, oral, systemic circulation (jugular vein), read-out: peripheral AUClast",0.3 ± 0.103 µg·h/mL
same,Cmax,"[2]; jugular vein blood (peripheral), rat, oral, systemic circulation (jugular vein), read-out: peripheral Cmax",0.102 ± 0.0169 µg/mL
same,AUC(0-t),"[2]; portal vein blood, rat, oral, portal vein, read-out: portal AUClast",0.679 ± 0.226 µg·h/mL
same,Cmax,"[2]; portal vein blood, rat, oral, portal vein, read-out: portal Cmax",0.331 ± 0.12 µg/mL
same,"increase in the AUC, II-3 vs II-2","[2]; dosed orally to rats, Example 23",100 fold
same,peripheral Cmax of parent II-3 relative to parent II-2,"[2]; rat, oral",100 fold
same,resistance to first pass metabolism,"[2]; rat, oral",more resistant
same,peripheral AUClast,"[2]; rat, oral, as restated in Example 23",0.102 µg·h/mL
same,oral exposure in the rat compared with II-2,[2]; summary of Example 18,better oral exposure
same,plasma stability (parent compound remaining),"[3]; rat plasma, 5 μM, 0.5, 1 and 2 hour time points",complete plasma stability
same,plasma stability compared with II-2,[3]; summary of Example 17 (mouse and rat plasma),better plasma stability
